Measured values from PMC11313180 (International Journal of Molecular Sciences, 2024).
Like-named read-outs stand apart in the source and are kept apart here.

What was measured:
[1] = test system: caspase 3/7 in T47D cells; assay: Caspase 3/7 activation assay, T47D; assay type: cell-based, human; settings: 24 h; 1 µM exemestane, 0.5 mM or 1 mM (R)-α-lipoic acid
Protocol: (§1) To analyze the compound-induced activation of capases 3 and 7, the CellEvent caspase 3/7 green detection reagent (Thermo Scientific, Wesel, Germany) was used according to the manufacturer’s instructions. […] After 24 h incubation, medium was removed, and cells were stained with 50 µL of CellEvent caspase 3/7 green detection reagent (2 µM in PBS supplemented with 5% heat-inactivated FBS). Cells were incubated for 30 min at 37 °C in a humidified incubator before imaging by using the Thermo Fisher ArrayScan XTI high content screening (HCS) system with a 10× magnification (Thermo Scientific). Hoechst 33342 was added for nuclei staining.

[2] = test system: HDAC8; settings: obtained by fitting Lechner et al. source data to a sigmoidal concentration–effect model; ref [21]; read-out: IC50 HDAC 8, Lechner et al.; cited from earlier work
[3] = test system: caspase 3/7 in MCF-7 cells; assay: Caspase 3/7 activation assay, MCF-7; assay type: cell-based, human; settings: 24 h; 1 µM exemestane, 0.5 mM or 1 mM (R)-α-lipoic acid
Protocol: as §1

[4] = test system: HDAC; settings: up to 500 µM (max. concentration tested); ref [21]; cited from earlier work
[5] = test system: MDA-MB-231; assay: MTT cell viability assay, MDA-MB-231; assay type: cell-based, human
Protocol: MTT assays were performed as previously described. Cell numbers plated differed depending on each incubation time: MDA-MB-231 5000 c/w, MCF-7 5000 c/w (72 h) and 3000 c/w (120 h), T-47D 10,000 c/w (72 h) and 5000 c/w /120 h). After incubation time, medium was replaced by MTT (solution of 5 mg/mL 3-(4,5-dimethylthiazol-2-yl)-2,5-diphenyl-tetrazoliumbromidin in phosphate buffered saline, Serva, Heidelberg, Germany). After 10 min (MCF-7), 20 min (MDA-MB-231), and 30 min (T47D) and dissolving in DMSO (VWR, Langenfeld, Germany), absorbance was measured at 544 nm and 690 nm in a FLUOstar microplate reader (BMG LabTech, Offenburg, Germany).

[6] = test system: MCF-7; assay: Immunoblotting, MCF-7; assay type: cell-based, human; settings: 48 h
Protocol: (§2) A quantity of 20 or 40 µg of total protein as well as, from PageRuler Prestained Protein Ladder, 10–180 kDA (Thermo Scientific, Wesel, Germany), were resolved by SDS-Page (12% polyacrylamide gel) and transferred to polyvinylidene fluoride membrane (Millipore Corporation, Billerica, MA, USA). Blots were incubated with primary antibodies against acetylated a -tubulin (Cat. No. sc-23950), a -tubulin (Cat. No. sc-8035) (Santa Cruz Biotechnology, Heidelberg, Germany), acetyl histone h3 (Cat. No. 39140) and histone H3 (Cat. No. NB100-1669), ß-actine (Cat. No. sc-47778), p21 (AF1047), c-myk (Cat. No. MAB3696), APAF1 (Cat. No. MAB868), BIM (Cat. No. NBP1-76936), FOXO1 (Cat. No. C29H4), BCL-2 (Cat. No. AF810), and survivin (Cat. No. AF886). After another one-hour incubation with the appropriate HRP-conjugated secondary antibody, proteins were visualized by Intas Imager (Intas, Göttingen, Germany) using luminol reagent (Santa Cruz Biotechnology, Heidelberg, Germany).

[7] = test system: MCF-7; assay: Long-term (10 days) live/dead proliferation assay, calcein AM and Hoechst 33342, MCF-7; assay type: cell-based, human; settings: 1 µM exemestane, 1 mM (R)-α-lipoic acid
Protocol: (§3) Cells were seeded on day one in 96-well plates. […] Then, cells were stained with calcein AM (Millipore Corporation, Billerica, MA, USA) and Hoechst 33342 (Tocris Bioscience, Bristol, UK) for 30 min and fluorescence images monitored by Leica DMi8 Thunder Imager (Leica Microsystems CMS GmbH, Wetzlar, Germany). Five images per well were monitored randomly. Calcein AM- and Hoechst 33342-stained area of the images (i.e., live proliferating cells) were evaluated.

[8] = test system: T47D; assay: Immunoblotting, T47D; assay type: cell-based, human; settings: 48 h
Protocol: as §2

[9] = test system: T47D; assay: Long-term (10 days) live/dead proliferation assay, calcein AM and Hoechst 33342, T47D; assay type: cell-based, human; settings: 1 µM exemestane, 1 mM (R)-α-lipoic acid
Protocol: as §3

[10] = test system: MCF-7; assay: Mitochondrial potential assay (TMRE), MCF-7; assay type: cell-based, human; settings: 1 mM; 2 h, 6 h, 24 h, 48 h
Protocol: The analysis of mitochondrial potential was carried out as previously described with minor modifications concerning fluorescence measurement. […] After an incubation time of 2 h, 6 h, 24 h, and 48 h, medium was removed, and cells were washed with PBS and then stained for 30 min at 37 °C with 50 µL staining reagent containing 500 nM tetramethyl rhodamine ethylester as perchlorate (TMRE, BIOTREND chemicals GmbH, Cologne) and Hoechst 33342 (5 µg/mL). A quantity of 20 µM CCCP (carbonyl cyanide-m-chlorophenylhydrazone, Sigma-Aldrich, München, Germany) served as control for mitochondrial potential breakdown. Fluorescence was measured by Leica DMi8 Thunder Imager (Leica Microsystems CMS GmbH, Wetzlar, Germany).

[11] = 120 h, IC50 ± SEM, read-out: IC50 MDA-MB-231, 120 h MTT assay
[12] = 1 mM (R)-α-lipoic acid, 1 µM exemestane

O=C(O)CCCC[C@H]1CCSS1 [(S)-α-lipoic acid]
caspase 3/7 activation, T47D [1]: slightly lower than (R)-α-lipoic acid | IC50 [2]: > 500 µM | caspase 3/7 activation, MCF-7 [3]: slightly lower than (R)-α-lipoic acid | HDAC inhibitory activity [4]: no HDAC inhibitory activity | IC50 [5, 11]: 243 ± 25.1 µM

O=C(O)CCCC[C@@H]1CCSS1 [(R)-α-lipoic acid]
expression of APAF-1 and BIM, MCF-7 [6]: upregulated | expression of FOXO1, MCF-7 [6]: strongly upregulated | acetylation of histone H3 and alpha-tubulin (western blot), MCF-7 [6, 12]: increased acetylation of histone and of alpha-tubulin | expression of p21, MCF-7 [6, 12]: moderately upregulated | expression of survivin and c-myk, MCF-7 [6, 12]: strongly downregulated | proliferation and doubling time over 10 days, MCF-7 [7]: strong reduction in proliferation and thus increase in doubling time | expression of APAF-1 and BIM, T47D [8]: upregulated | expression of FOXO1, T47D [8]: strongly upregulated | acetylation of histone H3 and alpha-tubulin (western blot), T47D [8, 12]: increased acetylation of histone and of alpha-tubulin | expression of p21, T47D [8, 12]: moderately upregulated | expression of survivin and c-myk, T47D [8, 12]: strongly downregulated | IC50 [2]: 127 µM | proliferation and doubling time over 10 days, T47D [9]: reduced proliferation and increased doubling time strongly | mitochondrial potential and structure (TMRE) [10]: mitochondrial fusion up to 24 h followed by mitochondrial fission and inhibition of proliferation | IC50 ([5]; 72 h MTT, slightly below, read-out: IC50 MDA-MB-231): ~1000 µM | IC50 [5, 11]: 225 ± 7.33 µM | increase in potency by prolongation of incubation time, MDA-MB-231 ([5]; 120 h versus 72 h MTT): 3.9 fold | IC50 ([5]; read-out: IC50 MDA-MB-231, 72 h MTT assay, 72 h, IC50 ± SEM): 873 ± 36 µM
